In PMC8229335, “Screening of Novel Laccase Producers—Isolation and Characterization of Cold-Adapted Laccase from Kabatiella bupleuri G3 Capable of Synthetic Dye Decolorization” (Biomolecules, 2021):

Target: T1, K. bupleuri laccase G3 (Aureobasidium bupleuri, UniProt A0A8F5DNG6)
T1 construct: about 70-75 kDa by SDS-PAGE
T1 sequence (A0A8F5DNG6 21-645): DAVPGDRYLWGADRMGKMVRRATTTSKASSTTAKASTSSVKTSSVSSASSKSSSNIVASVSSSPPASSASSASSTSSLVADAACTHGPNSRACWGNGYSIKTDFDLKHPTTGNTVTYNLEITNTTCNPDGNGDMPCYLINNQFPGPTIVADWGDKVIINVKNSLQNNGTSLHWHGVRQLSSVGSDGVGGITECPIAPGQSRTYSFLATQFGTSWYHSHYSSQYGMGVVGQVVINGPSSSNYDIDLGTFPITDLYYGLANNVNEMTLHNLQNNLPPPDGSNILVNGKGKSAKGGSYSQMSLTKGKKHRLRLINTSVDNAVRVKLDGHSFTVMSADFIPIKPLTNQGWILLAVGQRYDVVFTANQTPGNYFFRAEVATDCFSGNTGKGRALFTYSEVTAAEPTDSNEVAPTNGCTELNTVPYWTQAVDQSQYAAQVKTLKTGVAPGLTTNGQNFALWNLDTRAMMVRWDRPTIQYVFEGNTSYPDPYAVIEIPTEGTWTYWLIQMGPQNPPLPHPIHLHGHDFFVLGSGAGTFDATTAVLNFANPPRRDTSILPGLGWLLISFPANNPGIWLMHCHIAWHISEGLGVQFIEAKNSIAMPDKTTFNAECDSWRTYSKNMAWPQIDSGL
Experiment: spectrophotometric oxidation at […] nm; Lineweaver-Burk
Format: biochemical
Conditions: pH 3.5, 30 °C; partially purified native enzyme; read-out: apparent Km

- Km: 584 µM
SMILES: CCn1c(=NN=c2sc3cc(S(=O)(=O)O)ccc3n2CC)sc2cc(S(=O)(=O)O)ccc21 [ABTS, 2,2’-azino-bis(3-ethylbenzothiazoline-6-sulfonic acid)]
